Test results: PMC6290777, “Inhalation of the prodrug PI3K inhibitor CL27c improves lung function in asthma and fibrosis” (Nature Communications, 2018)

Tests used:
[1] = Pharmacokinetics of aerosolized CL27c (analysis of lung delivery); type: in vivo, C57BL/6J mice; conditions: for Lung concentration / Plasma concentration: label = analyte; for detectability in plasma after inhalation: aerosolized CL27c, traces only 1 h after the highest dose
Procedure: (§1) To define whether this prodrug was suitable for inhaled administration, CL27c was studied to evaluate selected ADME (absorption, distribution, metabolism, and excretion) and pharmacokinetic properties. First, stability of CL27c and CL27e was analyzed in mouse plasma (Supplementary Table 1) and in mouse, rat, and human liver microsomes in the presence of nicotinamide adenine dinucleotide phosphate (NADPH; Supplementary Table 2). Next, clearance of CL27c was analyzed in C57BL/6J mice after either intra-venous or oral administration. […] Clearance of CL27c and CL27e after oral administration could not be determined due to their low bioavailability (Supplementary Table 3). Next, pharmacokinetics after inhalation was studied in C57BL/6J mice after delivering an aerosolized micro-suspension of CL27c. As shown in Table 1 and Supplementary Fig. 1b, CL27c dose-dependently reached the lungs and its metabolite CL27e was detectable after inhalation of the highest dose. […] Therefore, the inhaled prodrug promotes local effects but prevents systemic absorption of pharmacologically relevant amounts of the active compound.
Mice were subjected to a 30-min aerosolized treatment with CL27c or vehicle (0.5% tyloxapol/saline solution)-containing solutions, where tyloxapol was added to improve distribution in the lungs. Mice were anesthetized at 1, 3, and 6 h after aerosolized treatment, the trachea was exposed and a 1.7-mm-outside-diameter polyethylene catheter was inserted and they were subsequently sacrificed. A syringe with a needle (27 G) pretreated with heparin was inserted into the vena cava above the renal veins to collect blood. After the collection of blood, lungs were subjected to bronchoalveolar lavage with three different 500 µl aliquots of acetonitrile. At the same time blood samples were centrifuged 180× g at 22 °C for 10 min, plasma supernatant was collected and treated with 1 volume of acetonitrile to precipitate proteins. Samples were then agitated on a high-speed vortex for 2 min and further mixed using a rotary shaker for 2 min. the precipitated proteins were then pelleted by centrifugation at 10,000× g for 10 min and the supernatant was transferred in a new tube. BALF and plasma extracts were subsequently subjected to Liquid chromatography-mass spectrometry.
A Nexera LC-30AD (Shimadzu, Milan, Italy) instrument equipped with a Luna C18 150 × 2.1 mm, 3 µm particle size column (Phenomenex, Milan, Italy) was used to carry out chromatography analysis. The eluents (VWR, Milan, Italy) were acetonitrile (A) and 0.1% formic acid (B) in the following gradient conditions: from 10 to 54% of solvent A in 21 min, up to 100% of A in 2 min and re-equilibration. The injection volume was 10 µL, the flow rate was […] and the column was maintained at the temperature of 40 °C. For the chromatographic separation, an octadecylsilica column was used. The employed mass analyzer was a Q-trap used in multiple reaction-monitoring (MRM) mode. With this technique, it was possible to detect and quantify simultaneously the drug and the metabolite with high selectivity and sensitivity. A QTrap-5500 (Sciex, Milan, Italy) instrument, dressed with a Turbo Ion Spray source, was utilized to analyze samples. The source parameters were: curtain gas 30 (arbitrary units, a.u.), gas1 40 (a.u.), gas2 55 (a.u.), temperature 500 °C, ion spray voltage 5500 V, declustering potential 200 (a.u), and entrance potential 11 (a.u.). The detector was used in MRM mode and the transitions for each compound were: 446 > 418 m/z and 446 > 401 m/z for CL27C (collision energy 29, collision exit potential 26 and 28, respectively); 432 > 387 m/z and 432 > 404 m/z for CL27e (collision energy 30 and 28, collision exit potential 26 and 27, respectively).

[2] = Pharmacokinetics of a single dose of CL27c (i.v. or p.o.); type: in vivo, C57BL/6J mice; conditions: for Cmax: plasma; for Cmax / AUClast / AUCtot / CL (apparent total body clearance) / F (bioavailability) / Tmax / Vss / Vz / t½ (elimination half-life): label = analyte
Procedure: as §1
Supplementary Table 3. Pharmacokinetic parameters of a single dose of CL27c […]
I.V. (10 mg/kg) P.O. (50 mg/kg) […]
Legend:I.V,. Intravenous administration; P.O., […]; Cmax, Maximum (peak) plasma drug concentration; AUClast Area under the plasma concentration-time curve from time zero to time of last measurable concentration; AUCtot Area under the plasma-concentration time curve; t½, Elimination half -life: CL, Apparent total body clearance of CL27c from plasma; Vz, Apparent volume of distribution during terminal phase; Vss, Apparent volume of distribution at steady state;F, Bioavalability.

class I PI3K = conditions: purified proteins; cited from earlier work
[3] = In vitro plasma stability; type: in vitro ADME, mouse
Procedure: as §1
Supplementary Table 1. In vitro plasma half-life (t1/2), (mouse plasma).
Values are the mean of at least triplicate determination in a single experiment.

[4] = aerosolized 2 mg/ml CL27c, 1 h from exposure
[5] = aerosolized 2 mg/ml CL27c, 3 h from exposure
[6] = aerosolized 2 mg/ml CL27c, 6 h from exposure

| SMILES | Lung concentration [1, 4] [ng/g] | Plasma concentration [1, 4] [ng/mL] | Lung concentration [1, 5] [ng/g] | Lung concentration [1, 6] [ng/g] | detectability in plasma after inhalation [1] | Cmax ([2]; CL27c I.V. 10 mg/kg) [ng/mL] | AUClast ([2]; CL27c I.V. 10 mg/kg) [ng·h/mL] | AUCtot ([2]; CL27c I.V. 10 mg/kg) [ng·h/mL] | CL (apparent total body clearance) ([2]; CL27c I.V. 10 mg/kg) [mL/min/kg] | F (bioavailability) ([2]; CL27c I.V. 10 mg/kg) [%] | Tmax ([2]; CL27c I.V. 10 mg/kg) [min] | Vss ([2]; CL27c I.V. 10 mg/kg) [L/kg] | Vz ([2]; CL27c I.V. 10 mg/kg) [L/kg] | t½ (elimination half-life) ([2]; CL27c I.V. 10 mg/kg) [min] | Cmax ([2]; CL27c P.O. 50 mg/kg) [ng/mL] | AUClast ([2]; CL27c P.O. 50 mg/kg) [ng·h/mL] | AUCtot ([2]; CL27c P.O. 50 mg/kg) [ng·h/mL] | F (bioavailability) ([2]; CL27c P.O. 50 mg/kg) [%] | Tmax ([2]; CL27c P.O. 50 mg/kg) [min] | t½ (elimination half-life) ([2]; CL27c P.O. 50 mg/kg) [min] | also measured |
| --- | --- | --- | --- | --- | --- | --- | --- | --- | --- | --- | --- | --- | --- | --- | --- | --- | --- | --- | --- | --- | --- |
| COC(=O)c1cccc(Cn2cc(-c3cccc4c(=O)cc(N5CCOCC5)[nH]c34)nn2)c1 [CL27c] | 169.2 ± 17.7 | 1.2 ± 0.1 | 34.2 ± 5.2 | 41.6 ± 6.5 | generally undetectable | 930 | 870 | 870 | 191 | 100 | 4.8 | 13.55 | 10.75 | 39 | 220 | 150 | 390 | 3.40 | 30 | 63 | Lung concentration ([1]; aerosolized 0.2 mg/ml CL27c, 1 h from exposure): 32.6 ± 5.1 ng/g; Lung concentration ([1]; aerosolized 0.2 mg/ml CL27c, 3 h from exposure): 10.9 ± 0.5 ng/g; Lung concentration ([1]; aerosolized 0.2 mg/ml CL27c, 6 h from exposure): 10.9 ± 1.8 ng/g; activity in PI3K enzymatic assay (class I PI3K): inactive; Concentration in mouse plasma ([3]; time point 0 min): 113.2 ± 12.8 ng/mL; Concentration in mouse plasma ([3]; time point 30 min): 6.2 ± 2.8 ng/mL |
| O=C(O)c1cccc(Cn2cc(-c3cccc4c(=O)cc(N5CCOCC5)[nH]c34)nn2)c1 [CL27e] | 4.5 ± 1.0 | 1.34 ± 0.62 | 0.1 ± 0.1 | 0.5 ± 0.2 | generally undetectable | 1900 | 980 | 1050 | 191 | 91 | 4.8 | 13.55 | 10.75 | 75 | 290 | 260 | 280 | 4.80 | 30 | 25.8 | Plasma concentration [1, 5]: <1 ng/mL; Plasma concentration [1, 6]: <1 ng/mL; peak plasma concentration relative to CL27c ([2]; 5 min after i.v. administration of CL27c): twice more abundant than CL27c; activity in PI3K enzymatic assay (class I PI3K): potent pan-class I PI3K inhibitor, acting at nanomolar concentration; Concentration in mouse plasma ([3]; time point 0 min): 45.3 ± 14.1 ng/mL; Concentration in mouse plasma ([3]; time point 30 min): 43.6 ± 7.4 ng/mL |
